Results as given in ChEMBL document CHEMBL3390848, “Affinity selection and sequence-activity relationships of HIV-1 membrane fusion inhibitors directed at the drug-resistant variants” (Medchemcomm, 2010).
Residues, ends and D or L forms follow the SMILES beside them.

What was measured:
[1] = tested on: Human immunodeficiency virus 1; assay: Antiviral activity against HIV1 NL4-3 harboring gp41 D36G mutant infected in human HeLa cells expressing CD4-LTR-beta-gal assessed as inhibition of viral replication after 48 hrs by MAGI assay; assay type: functional, organism-based
[2] = tested on: Human immunodeficiency virus 1; assay: Binding affinity to HIV1 His-tagged N-terminal heptad repeat of envelope glycoprotein gp41 assessed as recovery of N54-drug complex after 2 hrs by LC-MS analysis; set-up: concentration or dose not given beside the values
[3] = tested on: Human immunodeficiency virus 1; assay: Thermal stability of HIV1 envelope glycoprotein gp41 His-tagged N-terminal heptad repeat N54-drug complex assessed as thermal unfolding transition state by measuring molar ellipticity at 4 to 90 degC by circular dichroic spectra analysis

What does the source list for `CC[C@H](C)[C@H](NC(=O)[C@H](CC(C)C)NC(=O)[C@H](CCC(=O)O)NC(=O)[C@H](CCC(=O)O)NC(=O)[C@@H](NC(=O)[C@H](CC(C)C)NC(=O)[C@H](CO)NC(=O)[C@@H](NC(=O)[C@H](Cc1ccc(O)cc1)NC(C)=O)[C@@H](C)O)[C@@H](C)CC)C(=O)N[C@@H](CCCCN)C(=O)N[C@@H](CCCCN)C(=O)N[C@@H](Cc1ccc(O)cc1)C(=O)N[C@@H](CCC(=O)O)C(=O)N[C@@H](CCC(=O)O)C(=O)N[C@@H](CCC(N)=O)C(=O)N[C@@H](CCC(N)=O)C(=O)N[C@@H](CCCCN)C(=O)N[C@@H](CCCCN)C(=O)N[C@@H](CC(N)=O)C(=O)N[C@@H](CCC(=O)O)C(=O)N[C@@H](CCC(=O)O)C(=O)N[C@@H](CCC(=O)O)C(=O)N[C@@H](CC(C)C)C(=O)N[C@@H](CCCCN)C(=O)N[C@@H](CCCCN)C(=O)N[C@@H](CC(C)C)C(=O)N[C@@H](CCC(=O)O)C(=O)N[C@@H](CCC(=O)O)C(=O)N[C@@H](Cc1c[nH]c2ccccc12)C(=O)N[C@@H](C)C(=O)N[C@@H](CCCCN)C(=O)N[C@@H](CCCCN)C(=O)N[C@@H](Cc1c[nH]c2ccccc12)C(=O)N[C@@H](CC(N)=O)C(=O)N[C@@H](Cc1c[nH]c2ccccc12)C(=O)N[C@@H](Cc1ccccc1)C(N)=O` (Ac-YTSLIEELIKKYEEQQKKNEEELKKLEEWAKKWNWF-NH2)?
EC50 [1]: 5 nM; Activity [2]: 4.7%; Tm [3]: 61.1 °C

Which EC50 [1] does the source give for `CC[C@H](C)[C@H](NC(=O)[C@H](CC(C)C)NC(=O)[C@H](CCC(=O)O)NC(=O)[C@H](CCC(=O)O)NC(=O)[C@@H](NC(=O)[C@H](CC(C)C)NC(=O)[C@H](CO)NC(=O)[C@@H](NC(=O)[C@H](Cc1ccc(O)cc1)NC(C)=O)[C@@H](C)O)[C@@H](C)CC)C(=O)N[C@@H](CCCCN)C(=O)N[C@@H](CCCCN)C(=O)N[C@@H](CCCCN)C(=O)N[C@@H](CCC(=O)O)C(=O)N[C@@H](CCC(=O)O)C(=O)N[C@@H](CCC(N)=O)C(=O)N[C@@H](CCC(N)=O)C(=O)N[C@@H](CCCCN)C(=O)N[C@@H](CCCCN)C(=O)N[C@@H](CC(N)=O)C(=O)N[C@@H](CCC(=O)O)C(=O)N[C@@H](CCC(=O)O)C(=O)N[C@@H](CCC(=O)O)C(=O)N[C@@H](CC(C)C)C(=O)N[C@@H](CCCCN)C(=O)N[C@@H](CCCCN)C(=O)N[C@@H](CC(C)C)C(=O)N[C@@H](CCC(=O)O)C(=O)N[C@@H](CCC(=O)O)C(=O)N[C@@H](Cc1c[nH]c2ccccc12)C(=O)N[C@@H](C)C(=O)N[C@@H](CCCCN)C(=O)N[C@@H](CCCCN)C(=O)N[C@@H](Cc1c[nH]c2ccccc12)C(=O)N[C@@H](CC(N)=O)C(=O)N[C@@H](Cc1c[nH]c2ccccc12)C(=O)N[C@@H](Cc1ccccc1)C(N)=O` (Ac-YTSLIEELIKKKEEQQKKNEEELKKLEEWAKKWNWF-NH2) here?
Its EC50 is 330 nM.

What about the Activity [2] of the same molecule?
Its Activity is 0.8%.

And the Tm [3]?
The Tm was 50.6 °C.

Which EC50 [1] does the source give for `CC[C@H](C)[C@H](NC(=O)[C@H](CC(C)C)NC(=O)[C@H](CCC(=O)O)NC(=O)[C@H](CCC(=O)O)NC(=O)[C@@H](NC(=O)[C@H](CC(C)C)NC(=O)[C@H](CO)NC(=O)[C@@H](NC(=O)[C@H](Cc1ccc(O)cc1)NC(C)=O)[C@@H](C)O)[C@@H](C)CC)C(=O)N[C@@H](CCCCN)C(=O)N[C@@H](CCCCN)C(=O)N[C@@H](CO)C(=O)N[C@@H](CCC(=O)O)C(=O)N[C@@H](CCC(=O)O)C(=O)N[C@@H](CO)C(=O)N[C@@H](CCC(N)=O)C(=O)N[C@@H](CCCCN)C(=O)N[C@@H](CCCCN)C(=O)N[C@@H](CC(N)=O)C(=O)N[C@@H](CCC(=O)O)C(=O)N[C@@H](CCC(=O)O)C(=O)N[C@@H](CCC(=O)O)C(=O)N[C@@H](CC(C)C)C(=O)N[C@@H](CCCCN)C(=O)N[C@@H](CCCCN)C(=O)N[C@@H](CC(C)C)C(=O)N[C@@H](CCC(=O)O)C(=O)N[C@@H](CCC(=O)O)C(=O)N[C@@H](Cc1c[nH]c2ccccc12)C(=O)N[C@@H](C)C(=O)N[C@@H](CCCCN)C(=O)N[C@@H](CCCCN)C(=O)N[C@@H](Cc1c[nH]c2ccccc12)C(=O)N[C@@H](CC(N)=O)C(=O)N[C@@H](Cc1c[nH]c2ccccc12)C(=O)N[C@@H](Cc1ccccc1)C(N)=O` (Ac-YTSLIEELIKKSEESQKKNEEELKKLEEWAKKWNWF-NH2) here?
The EC50 was 4.6 nM.

What about the Activity [2] of the same molecule?
Its Activity is 3.2%.

What about the Tm [3] of the same molecule?
Its Tm is 66.7 °C.
